This is an account of results in US11246320B2, “Casein glycomacropeptide (CGMP) oligomers” (Chr. Hansen A/S, priority 2017, dated 2022).

Series [1] in a line: Stability of curcumin, free versus encapsulated (absorbance at 420 nm). It is filed as physicochemical. On the procedure:
To prepare a stock solution of curcumin, 100 mg of commercial turmeric powder was suspended in 10 mL of ethanol and vortex and kept for inversion for 2 hours. The tube was closed and covered with aluminum foil to prevent the degradation of curcumin by oxidation and UV light. Next, the suspension was centrifuged at 13200 rpm for 30 minutes to separate the insoluble particles form the ethanol solubilized curcumin. The supernatant was carefully collected and this was used as a stock solution of curcumin in ethanol. The stock solution was adjusted with ethanol so that a 100 x dilution of this stock solution in MQ-Water gave an absorbance of 2±0.1 at 420 nm, when measured immediately after the dilution. If stored at ambient conditions, the absorbance decreases rapidly due to degradation of curcumin by oxidation and light.
To load curcumin 10 μL of curcumin stock solution was added to 990 μL of buffer (±lactase) which was used for encapsulation. The loaded curcumin was not removed by repeated washing and this indicated good encapsulation and stabilization. The microcapsule suspension with encapsulated curcumin appeared yellow.

The conditions of series [2]: cited from earlier work; for pKsp: comparison values.

`COc1cc(/C=C/C(=O)CC(=O)/C=C/c2ccc(O)c(OC)c2)ccc1O` [curcumin]: the increase of half-life in series [1] (encapsulated in CaP particles stabilized by oligo-CGMP or in liposomes, versus storage at ambient conditions) is given as 5-10 times. Further, the “stability as indicated by half and quarter-life” value in series [1] (encapsulated in oligo-CGMP micelles) is “significantly increased”.
As to `O=C([O-])[O-].[Ca+2]` [calcium carbonate], the pKsp in series [2] is 8.47.
Regarding `[Ca+2].[OH-].[OH-]` [calcium hydroxide], the pKsp in series [2] was 5.3.
With `O=P([O-])([O-])[O-].O=P([O-])([O-])[O-].[Ca+2].[Ca+2].[Ca+2]` [CaP, Ca3(PO4)2], the Ksp in series [2] (25° C.) is reported as 2.07×10^−33.
